Assay results from PubChem BioAssay (NCI).
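Dose response: 5 concentrations. Exposure: 48 h. Format: 96-well plates. Endpoint: linear interpolation; highest concentration if not reached. TGI marks complete inhibition of growth.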

Assays:
Assay in all cases: NCI-60 cell line screen, 48 h
M14 melanoma = tested on: M14 melanoma
OVCAR-3 ovarian = tested on: OVCAR-3 ovarian
SNB-75 CNS = tested on: SNB-75 CNS
K-562 leukemia = tested on: K-562 leukemia
U251 CNS = tested on: U251 CNS
SN12C renal = tested on: SN12C renal
OVCAR-4 ovarian = tested on: OVCAR-4 ovarian
NCI-H226 lung = tested on: NCI-H226 lung
HCT-116 colon = tested on: HCT-116 colon
RXF 393 renal = tested on: RXF 393 renal
UO-31 renal = tested on: UO-31 renal
SK-MEL-2 melanoma = tested on: SK-MEL-2 melanoma
KM20L2 colon = tested on: KM20L2 colon
OVCAR-5 ovarian = tested on: OVCAR-5 ovarian
COLO 205 colon = tested on: COLO 205 colon
CCRF-CEM leukemia = tested on: CCRF-CEM leukemia
DMS 273 small cell lung = tested on: DMS 273 small cell lung
MALME-3M melanoma = tested on: MALME-3M melanoma
UACC-257 melanoma = tested on: UACC-257 melanoma
SNB-19 CNS = tested on: SNB-19 CNS
NCI-H522 lung = tested on: NCI-H522 lung
OVCAR-8 ovarian = tested on: OVCAR-8 ovarian
ACHN renal = tested on: ACHN renal
HOP-18 NSCLC = tested on: HOP-18 NSCLC
LXFL 529 NSCLC = tested on: LXFL 529 NSCLC
HOP-62 NSCLC = tested on: HOP-62 NSCLC
SK-MEL-5 melanoma = tested on: SK-MEL-5 melanoma
SR leukemia = tested on: SR leukemia
UACC-62 melanoma = tested on: UACC-62 melanoma
NCI-H23 lung = tested on: NCI-H23 lung
A498 renal = tested on: A498 renal
HCC-2998 colon = tested on: HCC-2998 colon
DMS 114 small cell lung = tested on: DMS 114 small cell lung
HCT-15 colon = tested on: HCT-15 colon
DLD-1 colon = tested on: DLD-1 colon
SF-295 CNS = tested on: SF-295 CNS
TK-10 renal = tested on: TK-10 renal
KM12 colon = tested on: KM12 colon
NCI-H460 lung = tested on: NCI-H460 lung
786-0 renal = tested on: 786-0 renal
LOX IMVI melanoma = tested on: LOX IMVI melanoma
HT29 colon = tested on: HT29 colon
EKVX NSCLC = tested on: EKVX NSCLC
CAKI-1 renal = tested on: CAKI-1 renal
IGROV1 ovarian = tested on: IGROV1 ovarian
SF-268 CNS = tested on: SF-268 CNS
MOLT-4 leukemia = tested on: MOLT-4 leukemia
SW-620 colon = tested on: SW-620 colon
M19-MEL melanoma = tested on: M19-MEL melanoma
SK-OV-3 ovarian = tested on: SK-OV-3 ovarian
A549 NSCLC = tested on: A549 NSCLC
SK-MEL-28 melanoma = tested on: SK-MEL-28 melanoma
HL-60(TB) leukemia = tested on: HL-60(TB) leukemia
RPMI-8226 leukemia = tested on: RPMI-8226 leukemia
SNB-78 CNS = tested on: SNB-78 CNS
XF 498 CNS = tested on: XF 498 CNS
HOP-92 NSCLC = tested on: HOP-92 NSCLC
SF-539 CNS = tested on: SF-539 CNS

Measured: TGI

COc1ccc2cc(C(=O)c3ccccc3C(=O)O)ccc2c1
not listed: RPMI-8226 leukemia | SNB-78 CNS | XF 498 CNS | HOP-92 NSCLC | SF-539 CNS
> 100 µM: all other assays above

Cc1cc(C)c(C(=O)O)c(N)c1O
not listed: HOP-18 NSCLC | NCI-H460 lung | SNB-78 CNS | XF 498 CNS | HOP-92 NSCLC | SF-539 CNS
> 100 µM: all other assays above

Cc1nc(Nc2nnc(-c3cc([N+](=O)[O-])cc([N+](=O)[O-])c3C)o2)sc1C(=O)CC(=O)Cc1nc2ccc(Cl)cc2[nH]c1=O
not listed: OVCAR-3 ovarian | MALME-3M melanoma | HOP-18 NSCLC | DLD-1 colon | 786-0 renal
> 100 µM: all other assays above
